Test results: patent US20260053834A1, “COVALENT MODIFIERS OF AKT1 AND USES THEREOF” (Terremoto Biosciences, Inc., priority 2023, published 2026)

What was measured:
[1] = tested on: LAPC4 prostate cancer cells, which express the AKT1 E17K allele; test: Antiproliferative effects in LAPC4 cells (CellTiter Glo, 72 h); format: cell-based; details: Homo sapiens, LAPC4, 72 h, read-out: LAPC4 proliferation IC50: GeoMean IC50
In short: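 Cells grown in IMDM with 12% FBS, seeded at 1,000 cells/well and treated with compound dilutions in DMSO for 72 h. Intracellular ATP read by luminescence. IC50 from a log(inhibitor) vs. response Hill fit.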

AKT1 E17K = target: T1, AKT1 E17K (Homo sapiens, UniProt P31749, E17K); test: Live cell target engagement by NanoBRET competitive probe displacement, AKT1 E17K; format: binding; details: transfected HEK293 cells, 2 h at 37° C., read-out: AKT1 E17K IC50: GeoMean IC50
T1 construct: expressed in transfected cells; host or cells: HEK293

AKT1 WT = target: T2, AKT1 WT (Homo sapiens, UniProt P31749); test: Live cell target engagement by NanoBRET competitive probe displacement, AKT1 WT; format: binding; details: transfected HEK293 cells, 2 h at 37° C., read-out: AKT1 WT IC50: GeoMean IC50
T2 construct: expressed in transfected cells; host or cells: HEK293

AKT2 = target: T3, AKT2 (Homo sapiens, UniProt P31751); test: Live cell target engagement by NanoBRET competitive probe displacement, AKT2; format: binding; details: transfected HEK293 cells, 2 h at 37° C., read-out: AKT2 IC50: GeoMean IC50
T3 construct: expressed in transfected cells; host or cells: HEK293
T3 sequence (P31751 whole entry): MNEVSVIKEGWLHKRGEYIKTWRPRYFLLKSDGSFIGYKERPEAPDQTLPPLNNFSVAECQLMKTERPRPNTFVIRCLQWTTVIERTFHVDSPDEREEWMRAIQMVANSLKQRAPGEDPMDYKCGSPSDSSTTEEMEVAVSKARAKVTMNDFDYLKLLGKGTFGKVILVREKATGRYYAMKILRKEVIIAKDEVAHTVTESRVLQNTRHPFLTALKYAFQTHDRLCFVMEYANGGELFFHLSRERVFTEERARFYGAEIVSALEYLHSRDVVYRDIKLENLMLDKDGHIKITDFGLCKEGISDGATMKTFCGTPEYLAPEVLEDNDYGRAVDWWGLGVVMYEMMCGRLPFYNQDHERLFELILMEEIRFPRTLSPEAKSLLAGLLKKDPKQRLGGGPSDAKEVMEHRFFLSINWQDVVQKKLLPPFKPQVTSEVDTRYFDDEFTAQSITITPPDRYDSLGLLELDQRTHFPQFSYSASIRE

T2 sequence (P31749 whole entry): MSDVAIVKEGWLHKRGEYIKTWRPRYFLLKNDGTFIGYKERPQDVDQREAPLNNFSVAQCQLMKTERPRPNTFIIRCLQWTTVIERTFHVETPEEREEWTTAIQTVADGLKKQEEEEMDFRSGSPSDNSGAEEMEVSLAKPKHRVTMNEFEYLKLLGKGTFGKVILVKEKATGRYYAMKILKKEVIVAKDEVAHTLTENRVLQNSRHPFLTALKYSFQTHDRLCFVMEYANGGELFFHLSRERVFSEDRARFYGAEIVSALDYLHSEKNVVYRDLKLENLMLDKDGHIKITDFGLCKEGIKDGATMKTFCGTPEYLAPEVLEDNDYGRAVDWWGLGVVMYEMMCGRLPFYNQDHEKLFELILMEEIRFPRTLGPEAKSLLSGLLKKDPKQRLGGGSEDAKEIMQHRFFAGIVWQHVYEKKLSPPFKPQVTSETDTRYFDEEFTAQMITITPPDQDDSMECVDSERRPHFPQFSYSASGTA
T1 sequence (P31749 whole entry E17K): as the sequence (P31749 whole entry) above, with E17K counted along it

Nc1ncccc1-c1nc2ccc(-n3cccn3)nc2n1-c1ccc2c(c1)CC[C@@H]2NC(=O)c1cc(C=O)c(O)cc1F [Example 105, (S)—N-(5-(2-(2-aminopyridin-3-yl)-5-(1H-pyrazol-1-yl)-3H-imidazo[4,5-b]pyridin-3-yl)-2,3-dihydro-1H-inden-1-yl)-2-fluoro-5-formyl-4-hydroxybenzamide]
IC50 [1]: 10 to 100 nM | IC50 (AKT1 E17K): 10 to 100 nM | IC50 (AKT1 WT): 10 to 100 nM | IC50 (AKT2): 100 to 2000 nM

COc1ccn(-c2ccc3nc(-c4cccnc4N)n(-c4ccc5c(c4)CC[C@@H]5NC(=O)c4ccc(O)c(C=O)c4)c3n2)n1 [Example 106, N-[(1S)-5-[2-(2-aminopyridin-3-yl)-5-(3-methoxypyrazol-1-yl)imidazo[4,5-b]pyridin-3-yl]-2,3-dihydro-1H-inden-1-yl]-3-formyl-4-hydroxybenzamide]
IC50 [1]: 10 to 100 nM | IC50 (AKT1 E17K): 10 to 100 nM | IC50 (AKT1 WT): 10 to 100 nM | IC50 (AKT2): 100 to 2000 nM

N#Cc1ccn(-c2ccc3nc(-c4cccnc4N)n(-c4ccc5c(c4)CC[C@@H]5NC(=O)c4ccc(O)c(C=O)c4)c3n2)n1 [Example 108, N-[(1S)-5-[2-(2-aminopyridin-3-yl)-5-(3-cyanopyrazol-1-yl)imidazo[4,5-b]pyridin-3-yl]-2,3-dihydro-1H-inden-1-yl]-3-formyl-4-hydroxybenzamide]
IC50 [1]: 100 to 2000 nM | IC50 (AKT1 E17K): 10 to 100 nM | IC50 (AKT1 WT): 100 to 2000 nM | IC50 (AKT2): ≥ 2000 nM

Nc1ncccc1-c1nc2ccc(-c3nccnc3F)nc2n1-c1ccc2c(c1)CC[C@@H]2NC(=O)c1ccc(O)c(C=O)c1 [Example 109, N-[(1S)-5-[2-(2-aminopyridin-3-yl)-5-(3-fluoropyrazin-2-yl)imidazo[4,5-b]pyridin-3-yl]-2,3-dihydro-1H-inden-1-yl]-3-formyl-4-hydroxybenzamide]
IC50 [1]: 100 to 2000 nM | IC50 (AKT1 E17K): 10 to 100 nM | IC50 (AKT1 WT): 100 to 2000 nM | IC50 (AKT2): 100 to 2000 nM

Nc1ncccc1-c1nc2ccc(-n3cccn3)nc2n1-c1ccc2c(c1)CC[C@@H]2NC(=O)c1cc(C=O)c(O)c(F)c1Cl [Example 110, N-[(1S)-5-[2-(2-aminopyridin-3-yl)-5-(pyrazol-1-yl)imidazo[4,5-b]pyridin-3-yl]-2,3-dihydro-1H-inden-1-yl]-2-chloro-3-fluoro-5-formyl-4-hydroxybenzamide]
IC50 [1]: 100 to 2000 nM | IC50 (AKT1 E17K): 10 to 100 nM | IC50 (AKT1 WT): 10 to 100 nM | IC50 (AKT2): 100 to 2000 nM

CS(=O)(=O)Nc1ncc(C(=O)N[C@H]2CCc3cc(-n4c(-c5cccnc5N)nc5ccc(-n6cccn6)nc54)ccc32)cc1C=O [Example 111, N-[(1S)-5-[2-(2-aminopyridin-3-yl)-5-(pyrazol-1-yl)imidazo[4,5-b]pyridin-3-yl]-2,3-dihydro-1H-inden-1-yl]-5-formyl-6-methanesulfonamidopyridine-3-carboxamide]
IC50 [1]: ≥ 2000 nM | IC50 (AKT1 E17K): 100 to 2000 nM | IC50 (AKT1 WT): 100 to 2000 nM | IC50 (AKT2): ≥ 2000 nM

C#Cc1c(C(=O)N[C@H]2CCc3cc(-n4c(-c5cccnc5N)nc5ccc(-n6cccn6)nc54)ccc32)ccc(O)c1C=O [Example 112, N-[(1S)-5-[2-(2-aminopyridin-3-yl)-5-(pyrazol-1-yl)imidazo[4,5-b]pyridin-3-yl]-2,3-dihydro-1H-inden-1-yl]-2-ethynyl-3-formyl-4-hydroxybenzamide]
IC50 [1]: ≥ 2000 nM | IC50 (AKT1 E17K): 10 to 100 nM | IC50 (AKT1 WT): 10 to 100 nM | IC50 (AKT2): 100 to 2000 nM

Nc1ncccc1-c1nc2ccc(-c3ccn(C(F)F)n3)nc2n1-c1ccc2c(c1)CC[C@@H]2NC(=O)c1ccc(O)c(C=O)c1 [Example 113, N-[(1S)-5-[2-(2-aminopyridin-3-yl)-5-[1-(difluoromethyl)pyrazol3-yl]imidazo [4,5-b]pyridin-3-yl]-2,3-dihydro-1H-inden-1-yl]-3-formyl-4-hydroxybenzamide]
IC50 [1]: 10 to 100 nM | IC50 (AKT1 E17K): < 10 nM | IC50 (AKT1 WT): 10 to 100 nM | IC50 (AKT2): 100 to 2000 nM

CN(C)c1ccn(-c2ccc3nc(-c4cccnc4N)n(-c4ccc5c(c4)CC[C@@H]5NC(=O)c4ccc(O)c(C=O)c4)c3n2)n1 [Example 114, (S)—N-(5-(2-(2-aminopyridin-3-yl)-5-(3-(dimethylamino)-1H-pyrazol-1-yl)-3H-imidazo[4,5-b]pyridin-3-yl)-2,3-dihydro-1H-inden-1-yl)-3-formyl-4-hydroxybenzamide]
IC50 [1]: 10 to 100 nM | IC50 (AKT1 E17K): 10 to 100 nM | IC50 (AKT1 WT): 10 to 100 nM | IC50 (AKT2): 100 to 2000 nM

Nc1ncccc1-c1nc2ccc(-n3nccn3)nc2n1-c1ccc2c(c1)CC[C@@H]2NC(=O)c1cc(F)c(O)c(C=O)c1 [Example 115, N-[(1S)-5-[2-(2-aminopyridin-3-yl)-5-(1,2,3-triazol-2-yl)imidazo[4,5-b]pyridin-3-yl]-2,3-dihydro-1H-inden-1-yl]-3-fluoro-5-formyl-4-hydroxybenzamide]
IC50 [1]: 10 to 100 nM | IC50 (AKT1 E17K): 10 to 100 nM | IC50 (AKT1 WT): 10 to 100 nM | IC50 (AKT2): 100 to 2000 nM

Nc1ncccc1-c1nc2ccc(-n3ccc(C(F)F)n3)nc2n1-c1ccc2c(c1)CC[C@@H]2NC(=O)c1ccc(O)c(C=O)c1 [Example 116, (S)—N-(5-(2-(2-aminopyridin-3-yl)-5-(3-(difluoromethyl)-1H-pyrazol-1-yl)-3H-imidazo[4,5-b]pyridin-3-yl)-2,3-dihydro-1H-inden-1-yl)-3-formyl-4-hydroxybenzamide]
IC50 [1]: 100 to 2000 nM | IC50 (AKT1 E17K): 10 to 100 nM | IC50 (AKT1 WT): 10 to 100 nM | IC50 (AKT2): 100 to 2000 nM

Nc1ncccc1-c1nc2ccc(-n3ccc(-n4cccn4)n3)nc2n1-c1ccc2c(c1)CC[C@@H]2NC(=O)c1ccc(O)c(C=O)c1 [Example 117, (S)—N-(5-(5-(1′H-[1,3′-bipyrazol]-1′-yl)-2-(2-aminopyridin-3-yl)-3H-imidazo[4,5-b]pyridin-3-yl)-2,3-dihydro-1H-inden-1-yl)-3-formyl-4-hydroxybenzamide]
IC50 [1]: 10 to 100 nM | IC50 (AKT1 E17K): 10 to 100 nM | IC50 (AKT1 WT): 10 to 100 nM | IC50 (AKT2): 100 to 2000 nM

Nc1ncccc1-c1nc2ccc(-n3nccn3)nc2n1-c1ccc2c(c1)CC[C@@H]2NC(=O)c1cc(C=O)c(O)c(F)c1F [Example 118, (S)—N-(5-(2-(2-aminopyridin-3-yl)-5-(2H-1,2,3-triazol-2-yl)-3H-imidazo[4,5-b]pyridin-3-yl)-2,3-dihydro-1H-inden-1-yl)-2,3-difluoro-5-formyl-4-hydroxybenzamide]
IC50 [1]: 10 to 100 nM | IC50 (AKT1 E17K): 10 to 100 nM | IC50 (AKT1 WT): 10 to 100 nM | IC50 (AKT2): 100 to 2000 nM

C#Cc1ccn(-c2ccc3nc(-c4cccnc4N)n(-c4ccc5c(c4)CC[C@@H]5NC(=O)c4ccc(O)c(C=O)c4)c3n2)n1 [Example 119, N-[(1S)-5-[2-(2-aminopyridin-3-yl)-5-(3-ethynylpyrazol-1-yl)imidazo[4,5-b]pyridin-3-yl]-2,3-dihydro-1H-inden-1-yl]-3-formyl-4-hydroxybenzamide]
IC50 [1]: 10 to 100 nM | IC50 (AKT1 E17K): < 10 nM | IC50 (AKT1 WT): 10 to 100 nM | IC50 (AKT2): 100 to 2000 nM

Cn1ncc(-c2ccc3nc(-c4cccnc4N)n(-c4ccc5c(c4)CC[C@@H]5NC(=O)c4ccc(O)c(C=O)c4)c3n2)n1 [Example 120, N-[(1S)-5-[2-(2-aminopyridin-3-yl)-5-(2-methyl-1,2,3-triazol-4-yl)imidazo[4,5-b]pyridin-3-yl]-2,3-dihydro-1H-inden-1-yl]-3-formyl-4-hydroxybenzamide]
IC50 [1]: 10 to 100 nM | IC50 (AKT1 E17K): < 10 nM | IC50 (AKT1 WT): 10 to 100 nM | IC50 (AKT2): 100 to 2000 nM

Nc1ncccc1-c1nc2ccc(-c3ncco3)nc2n1-c1ccc2c(c1)CC[C@@H]2NC(=O)c1ccc(O)c(C=O)c1 [Example 121, (S)—N-(5-(2-(2-aminopyridin-3-yl)-5-(oxazol-2-yl)-3H-imidazo[4,5-b]pyridin-3-yl)-2,3-dihydro-1H-inden-1-yl)-3-formyl-4-hydroxybenzamide]
IC50 [1]: 10 to 100 nM | IC50 (AKT1 E17K): < 10 nM | IC50 (AKT1 WT): 10 to 100 nM | IC50 (AKT2): 100 to 2000 nM

CN(C)C(=O)Nc1ccc(C(=O)N[C@H]2CCc3cc(-n4c(-c5cccnc5N)nc5ccc(-n6ccc(F)n6)nc54)ccc32)cc1C=O [Example 122, N-[(1S)-5-[2-(2-aminopyridin-3-yl)-5-(3-fluoropyrazol-1-yl)imidazo[4,5-b]pyridin-3-yl]-2,3-dihydro-1H-inden-1-yl]-4-[(dimethylcarbamoyl)amino]-3-formylbenzamide]
IC50 [1]: 10 to 100 nM | IC50 (AKT1 E17K): < 10 nM | IC50 (AKT1 WT): 10 to 100 nM | IC50 (AKT2): 100 to 2000 nM

Nc1ncccc1-c1nc2ccc(-n3cccn3)nc2n1-c1ccc2c(c1)CC[C@@H]2NC(=O)c1cc(C=O)c(O)c(Cl)c1F [Example 123, (S)—N-(5-(2-(2-aminopyridin-3-yl)-5-(1H-pyrazol-1-yl)-3H-imidazo[4,5-b]pyridin-3-yl)-2,3-dihydro-1H-inden-1-yl)-3-chloro-2-fluoro-5-formyl-4-hydroxybenzamide]
IC50 [1]: 10 to 100 nM | IC50 (AKT1 E17K): < 10 nM | IC50 (AKT1 WT): 10 to 100 nM | IC50 (AKT2): 10 to 100 nM

CSc1ccn(-c2ccc3nc(-c4cccnc4N)n(-c4ccc5c(c4)CC[C@@H]5NC(=O)c4ccc(O)c(C=O)c4)c3n2)n1 [Example 124, N-[(1S)-5-[2-(2-aminopyridin-3-yl)-5-[3-(methylsulfanyl)pyrazol-1-yl]imidazo[4,5-b]pyridin-3-yl]-2,3-dihydro-1H-inden-1-yl]-3-formyl-4-hydroxybenzamide]
IC50 [1]: 10 to 100 nM | IC50 (AKT1 E17K): 10 to 100 nM | IC50 (AKT1 WT): 10 to 100 nM | IC50 (AKT2): 100 to 2000 nM

Nc1ncccc1-c1nc2ccc(-n3ccc(F)n3)nc2n1-c1ccc2c(c1)CC[C@@H]2NC(=O)c1cc(C=O)c(O)c(F)c1F [Example 125, (S)—N-(5-(2-(2-aminopyridin-3-yl)-5-(3-fluoro-1H-pyrazol-1-yl)-3H-imidazo[4,5-b]pyridin-3-yl)-2,3-dihydro-1H-inden-1-yl)-2,3-difluoro-5-formyl-4-hydroxybenzamide]
IC50 [1]: 10 to 100 nM | IC50 (AKT1 E17K): < 10 nM | IC50 (AKT1 WT): 10 to 100 nM | IC50 (AKT2): 100 to 2000 nM
